# Laboratory results from US20230165252A1, “ACTIVE COMPOUND COMBINATIONS” (Bayer Aktiengesellschaft, priority 2020, published 2023).
# Several values for one entry are separate records, joined by “and”; a condition that tells them apart may be missing. Equal entries are not always repeated. Where two headings read alike, the source gives them in different places.
# Tests used:
# Type in all cases: cell-based
# Cordana musae = assay: in vitro-Test with Cordana musae (microtiter growth inhibition); conditions: single substance
# Experimental: (§1) The degree of efficacy expressed in % is denoted: 0% means an efficacy, which corresponds to that of the control, while an efficacy of 100% means that no disease is observed.
# (§2) If the actual fungicidal activity exceeds the calculated value, then the activity of the combination is super-additive, i.e. a synergistic effect exists. In this case, the efficacy, which was actually observed, must be greater than the value for the expected efficacy (E), that was calculated from the abovementioned formula.
# (§3) Example: In Vitro-Test with Fungal Microorganisms
# (§4) Wells of 96-well microtiter plates are filled with 10 μl of a preparation of test compound or compound combination in methanol+emulsifier alkylaryl-polyglycol-ether. Thereafter, the solvent is evaporated in a hood. At the next step, 100 μl of liquid potato dextrose medium is given into each well, that has been amended with an appropriate concentration of spores or mycelium suspension of the test fungus.
# (§5) With the aid of a photometer, the extinction in all wells is measured at the wavelength of 620 nm.
# (§6) The microtiter plates are incubated at 20° C. and 85% relative humidity. The inhibition of growth is determined again photometrically 3-5 days after the application. Efficacy is calculated in relation to the untreated control, 0% efficacy means fungal growth as high as in untreated control while 100% efficacy means no fungal growth is measured.
# Fusarium culmorum = assay: in vitro-Test with Fusarium culmorum (microtiter growth inhibition)
# Experimental: as §1, §2, §3, §4, §5, §6
# Cercospora beticola = assay: in vitro-Test with Cercospora beticola (microtiter growth inhibition); conditions: alone
# Experimental: as §1, §2, §3, §4, §5, §6
# Alternaria alternate = assay: in vitro-Test with Alternaria alternate (microtiter growth inhibition); conditions: for inhibition of growth at 20 ppm / inhibition of growth at 0.8 ppm / inhibition of growth at 0.008 ppm / inhibition of growth at 0.04 ppm / inhibition of growth at 1 ppm / inhibition of growth at 0.2 ppm / inhibition of growth at 4 ppm: Alternaria
# Experimental: as §1, §2, §3, §4, §5, §6
# [1] = tested on: Ustilago segetum var. avenae; assay: in vitro-Test with Ustilago segetum var. avenae (microtiter growth inhibition); conditions: single compound
# Experimental: as §1, §2, §3, §4, §5, §6
# Diaporthe citri = assay: in vitro-Test with Diaporthe citri (microtiter growth inhibition); conditions: applied alone
# Experimental: as §2, §3, §4, §5, §6
# Botrytis cinerea = assay: in vitro-Test with Botrytis cinerea (microtiter growth inhibition); conditions: applied alone
# Experimental: as §1, §2, §3, §4, §5, §6
# [2] = Neocordana musae, 0.8 ppm, read-out: Efficacy
# [3] = Neocordana musae, read-out: Efficacy
# [4] = Fusarium culmorum, read-out: Efficacy
# [5] = Cercospora beticola, read-out: Efficacy %
# [6] = applied alone, read-out: Efficacy
# [7] = Cercospora beticola, 0.008 ppm, read-out: Efficacy %
# [8] = Cercospora beticola, 1.0 ppm, read-out: Efficacy %
# [9] = Diaporthe citri, 0.04 ppm, read-out: Efficacy
# [10] = Diaporthe citri, 1.0 ppm, read-out: Efficacy
# [11] = 0.008 ppm, alone, read-out: Efficacy %
# [12] = 0.04 ppm, alone, read-out: Efficacy %
# [13] = 1.0 ppm, alone, read-out: Efficacy %
# [14] = applied alone, 0.008 ppm, read-out: Efficacy
# [15] = applied alone, 0.2 ppm, read-out: Efficacy
# [16] = Fusarium culmorum, 0.04 ppm, read-out: Efficacy
# [17] = Fusarium culmorum, 1.0 ppm, read-out: Efficacy
# [18] = Diaporthe citri, read-out: Efficacy
# [19] = 4 ppm, alone, read-out: Efficacy %
structure (smiles),measurement,setting,value
"COc1cc(C)c(C(=O)c2c(OC)ccc(Br)c2C)c(OC)c1OC [Compound 15.016, metrafenone]",inhibition of growth at 0.8 ppm,Cordana musae; [2],0%
same,inhibition of growth at 20 ppm,Cordana musae; [3],22%
same,inhibition of growth at 0.8 ppm,Fusarium culmorum; [4],0%
same,inhibition of growth at 4 ppm,Fusarium culmorum; [4],0%
same,inhibition of growth at 20 ppm,Fusarium culmorum; [4],0%
O=C1C2CC=CCC2C(=O)N1SC(Cl)(Cl)Cl (centres unmarked) [captan],inhibition of growth at 4 ppm,Cercospora beticola; [5],73%
same,inhibition of growth at 4 ppm,Cordana musae; [3],2%
same,Efficacy,Cordana musae; 0.8 ppm,0%
same,inhibition of growth at 20 ppm,"Alternaria alternate; alone, read-out: Efficacy %",83%
same,inhibition of growth at 0.8 ppm,Alternaria alternate; [6],10%
same,inhibition of growth at 20 ppm,Alternaria alternate; [6],100%
same,Efficacy,"Alternaria alternate; applied alone, 4 ppm",100%
same,inhibition of growth at 0.8 ppm,Fusarium culmorum; [4],2%
same,inhibition of growth at 20 ppm,Fusarium culmorum; [4],5%
CC1COC(Cn2cncn2)(c2ccc(Oc3ccc(Cl)cc3)cc2Cl)O1 (centres unmarked) [difenoconazole],inhibition of growth at 0.008 ppm,Cercospora beticola; [7],9%
same,inhibition of growth at 0.2 ppm,Cercospora beticola; [5],68%
same,inhibition of growth at 1 ppm,Cercospora beticola; [8],100%
same,inhibition of growth at 0.008 ppm,"Cordana musae; Neocordana musae, 0.008 ppm, read-out: Efficacy",0%
same,inhibition of growth at 1 ppm,"Cordana musae; Neocordana musae, 1.0 ppm, read-out: Efficacy",42%
same,inhibition of growth at 0.04 ppm,"[1]; 0.04 ppm, read-out: Efficacy %",4%
same,inhibition of growth at 0.2 ppm,"[1]; 0.2 ppm, read-out: Efficacy %",70%
same,inhibition of growth at 1 ppm,"[1]; 1.0 ppm, read-out: Efficacy %",100%
same,inhibition of growth at 0.04 ppm,Diaporthe citri; [9],13%
same,inhibition of growth at 1 ppm,Diaporthe citri; [10],88%
same,Efficacy,Diaporthe citri; 0.008 ppm,0%
same,inhibition of growth at 0.008 ppm,Alternaria alternate; [11],8%
same,inhibition of growth at 0.04 ppm,Alternaria alternate; [12],4%
same,inhibition of growth at 1 ppm,Alternaria alternate; [13],98%
same,inhibition of growth at 0.008 ppm,Alternaria alternate; [14],11%
same,inhibition of growth at 0.2 ppm,Alternaria alternate; [15],3%
same,inhibition of growth at 0.008 ppm,"Fusarium culmorum; Fusarium culmorum, 0.008 ppm, read-out: Efficacy",3%
same,inhibition of growth at 0.04 ppm,Fusarium culmorum; [16],8%
same,inhibition of growth at 0.2 ppm,"Fusarium culmorum; Fusarium culmorum, 0.2 ppm, read-out: Efficacy",0%
same,inhibition of growth at 1 ppm,Fusarium culmorum; [17],0%
N#Cc1sc2c(=O)c3ccccc3c(=O)c=2sc1C#N [dithianon],inhibition of growth at 4 ppm,Cercospora beticola; [5],99%
same,inhibition of growth at 20 ppm,Cercospora beticola; [5],98%
same,inhibition of growth at 0.8 ppm,Cordana musae; [2],9%
same,inhibition of growth at 4 ppm,Cordana musae; [3],99%
same,inhibition of growth at 20 ppm,Cordana musae; [3],98%
same,inhibition of growth at 0.8 ppm,Diaporthe citri; [18],34%
same,inhibition of growth at 4 ppm,Diaporthe citri; [18],98%
same,inhibition of growth at 20 ppm,Diaporthe citri; [18],97%
same,inhibition of growth at 0.8 ppm,"Alternaria alternate; alone, read-out: Efficacy %",0%
same,inhibition of growth at 4 ppm,Alternaria alternate; [19],71%
same,inhibition of growth at 20 ppm,"Alternaria alternate; alone, read-out: Efficacy %",100%
same,inhibition of growth at 0.8 ppm,Fusarium culmorum; [4],0%
same,inhibition of growth at 4 ppm,Fusarium culmorum; [4],39%
same,inhibition of growth at 20 ppm,Fusarium culmorum; [4],100%
COc1ccnc(C(=O)N[C@H]2COC(=O)[C@H](Cc3ccccc3)[C@@H](OC(=O)C(C)C)[C@H](C)OC2=O)c1OCOC(=O)C(C)C [fenpicoxamid],Efficacy %,Cercospora beticola; 1.0 ppm,74% and 58% and 42%
same,Efficacy %,Cercospora beticola; 5.0 ppm,86% and 78%
same,Efficacy,Cordana musae; 1.0 ppm,50%
same,Efficacy,Cordana musae; 5.0 ppm,74%
same,Efficacy,Diaporthe citri; 0.04 ppm,0%
same,Efficacy,Diaporthe citri; 0.2 ppm,5% and 0%
same,Efficacy,Diaporthe citri; 1.0 ppm,87% and 73% and 75%
same,Efficacy,Diaporthe citri; 5.0 ppm,94% and 93% and 90%
same,Efficacy %,"Alternaria alternate; 0.2 ppm, alone",10% and 4%
same,Efficacy %,"Alternaria alternate; 5.0 ppm, alone",80% and 81%
same,Efficacy,"Alternaria alternate; applied alone, 5.0 ppm",64%
same,Efficacy,Fusarium culmorum; 0.04 ppm,0%
same,Efficacy,Fusarium culmorum; 0.2 ppm,0%
same,Efficacy,Fusarium culmorum; 1.0 ppm,0%
same,Efficacy,Fusarium culmorum; 5.0 ppm,0%
O=C(NCCc1ncc(C(F)(F)F)cc1Cl)c1ccccc1C(F)(F)F [fluopyram],inhibition of growth at 20 ppm,Cercospora beticola; [5],17%
same,inhibition of growth at 0.8 ppm,Cordana musae; [2],0%
same,inhibition of growth at 4 ppm,Cordana musae; [3],5%
same,inhibition of growth at 20 ppm,Cordana musae; [3],20%
same,inhibition of growth at 4 ppm,Diaporthe citri; [18],0%
same,inhibition of growth at 20 ppm,Diaporthe citri; [18],26%
same,inhibition of growth at 0.8 ppm,"Alternaria alternate; alone, read-out: Efficacy %",77%
same,inhibition of growth at 4 ppm,Alternaria alternate; [19],94%
same,inhibition of growth at 0.8 ppm,Alternaria alternate; [6],81%
same,inhibition of growth at 4 ppm,"Alternaria alternate; applied alone, 4 ppm, read-out: Efficacy",85%
same,inhibition of growth at 20 ppm,Alternaria alternate; [6],99%
same,inhibition of growth at 0.8 ppm,Fusarium culmorum; [4],1%
same,inhibition of growth at 4 ppm,Fusarium culmorum; [4],0%
same,inhibition of growth at 20 ppm,Fusarium culmorum; [4],3%
CC(C)c1ccc(Cl)cc1CN(C(=O)c1c(C(F)F)nn(C)c1F)C1CC1 [isoflucypram],Efficacy %,Cercospora beticola; 0.008 ppm,11%
same,Efficacy %,Cercospora beticola; 0.04 ppm,16%
same,Efficacy %,Cercospora beticola; 1.0 ppm,35% and 39%
same,Efficacy,Cordana musae; 0.008 ppm,0%
same,Efficacy,Cordana musae; 0.04 ppm,10% and 12%
same,Efficacy,Cordana musae; 0.2 ppm,0%
same,Efficacy,Cordana musae; 1.0 ppm,18% and 8%
same,Efficacy %,[1]; 0.008 ppm,0%
same,Efficacy %,[1]; 0.04 ppm,45%
same,Efficacy %,[1]; 0.2 ppm,100%
same,Efficacy %,[1]; 1.0 ppm,100%
same,Efficacy,Diaporthe citri; 0.008 ppm,0%
same,Efficacy,Diaporthe citri; 0.04 ppm,0%
same,Efficacy,Diaporthe citri; 0.2 ppm,0%
same,Efficacy,Diaporthe citri; 1.0 ppm,49% and 41%
same,Efficacy %,"Alternaria alternate; 0.008 ppm, alone",44% and 41%
same,Efficacy %,"Alternaria alternate; 0.04 ppm, alone",69% and 76%
same,Efficacy %,"Alternaria alternate; 0.2 ppm, alone",85% and 81%
same,Efficacy %,"Alternaria alternate; 1.0 ppm, alone",74%
same,Efficacy,"Alternaria alternate; applied alone, 0.008 ppm",53%
same,Efficacy,"Alternaria alternate; applied alone, 0.04 ppm",71%
same,Efficacy,"Alternaria alternate; applied alone, 0.2 ppm",73%
same,Efficacy,Fusarium culmorum; 0.008 ppm,0%
same,Efficacy,Fusarium culmorum; 0.04 ppm,0%
same,Efficacy,Fusarium culmorum; 0.2 ppm,0%
same,Efficacy,Fusarium culmorum; 1.0 ppm,0%
CCCN(CC)CC1COC2(CCC(C(C)(C)C)CC2)O1 (centres unmarked) [spiroxamine],inhibition of growth at 4 ppm,Cordana musae; [3],0%
same,inhibition of growth at 20 ppm,Cordana musae; [3],4%
same,Efficacy,Botrytis cinerea; 0.8 ppm,5%
same,Efficacy,Botrytis cinerea; 4 ppm,4%
same,inhibition of growth at 0.8 ppm,"[1]; 0.8 ppm, read-out: Efficacy %",0%
same,inhibition of growth at 4 ppm,"[1]; 4 ppm, read-out: Efficacy %",0%
same,inhibition of growth at 20 ppm,"[1]; 20 ppm, read-out: Efficacy %",87%
same,inhibition of growth at 0.8 ppm,Diaporthe citri; [18],0%
same,inhibition of growth at 4 ppm,Diaporthe citri; [18],0%
same,inhibition of growth at 20 ppm,Diaporthe citri; [18],6%
same,inhibition of growth at 0.8 ppm,"Alternaria alternate; alone, read-out: Efficacy %",1%
same,inhibition of growth at 4 ppm,Alternaria alternate; [19],1%
same,inhibition of growth at 0.8 ppm,Fusarium culmorum; [4],0%
same,inhibition of growth at 4 ppm,Fusarium culmorum; [4],0%
same,inhibition of growth at 20 ppm,Fusarium culmorum; [4],2%
CC(C)(C)C(O)(CCc1ccc(Cl)cc1)Cn1cncn1 (centres unmarked) [tebuconazole],inhibition of growth at 0.008 ppm,Cercospora beticola; [7],0%
same,inhibition of growth at 0.04 ppm,"Cercospora beticola; Cercospora beticola, 0.04 ppm, read-out: Efficacy %",22%
same,inhibition of growth at 0.2 ppm,Cercospora beticola; [5],83%
same,inhibition of growth at 1 ppm,Cercospora beticola; [8],100%
same,inhibition of growth at 0.2 ppm,"Cordana musae; Neocordana musae, 0.2 ppm, read-out: Efficacy",2%
same,Efficacy,Botrytis cinerea; 0.008 ppm,0%
same,Efficacy,Botrytis cinerea; 0.04 ppm,8%
same,Efficacy,Botrytis cinerea; 0.2 ppm,20%
same,Efficacy,Botrytis cinerea; 1.0 ppm,100%
same,inhibition of growth at 0.04 ppm,Diaporthe citri; [9],47%
same,inhibition of growth at 0.2 ppm,"Diaporthe citri; Diaporthe citri, 0.2 ppm, read-out: Efficacy",96%
same,inhibition of growth at 1 ppm,Diaporthe citri; [10],98%
same,inhibition of growth at 0.008 ppm,Alternaria alternate; [11],11%
same,inhibition of growth at 0.04 ppm,Alternaria alternate; [12],9%
same,inhibition of growth at 0.2 ppm,"Alternaria alternate; 0.2 ppm, alone, read-out: Efficacy %",32%
same,inhibition of growth at 1 ppm,Alternaria alternate; [13],98%
same,inhibition of growth at 0.008 ppm,Alternaria alternate; [14],0%
same,inhibition of growth at 0.04 ppm,"Alternaria alternate; applied alone, 0.04 ppm, read-out: Efficacy",14%
same,inhibition of growth at 0.2 ppm,Alternaria alternate; [15],48%
same,inhibition of growth at 1 ppm,"Alternaria alternate; applied alone, 1.0 ppm, read-out: Efficacy",99%
same,inhibition of growth at 0.04 ppm,Fusarium culmorum; [16],0%
same,inhibition of growth at 1 ppm,Fusarium culmorum; [17],99%
